{
  "source": "patent US11542240B2",
  "about": "“STK19 inhibitors for treatment of cancer” (TRUSTEES OF BOSTON UNIVERSITY, priority 2018, dated 2023)",
  "experiment_in_all_cases": "biochemical",
  "format_in_all_cases": "binding",
  "key": {"[1]": {"molecular_target": "panel of 468 diverse kinases (Homo sapiens, UniProt O14936)", "details": "CASK; 1000 nM; read-out: Percent Control"}, "[2]": {"molecular_target": "panel of 468 diverse kinases (Homo sapiens, UniProt Q13705)", "details": "ACVR2B; 1000 nM; read-out: Percent Control"}, "[3]": {"molecular_target": "panel of 468 diverse kinases (Homo sapiens, UniProt P52564)", "details": "MEK6; 1000 nM; read-out: Percent Control"}, "[4]": {"molecular_target": "panel of 468 diverse kinases (Homo sapiens, UniProt P00533, L858R)", "details": "EGFR(L858R); 1000 nM; read-out: Percent Control"}, "[5]": {"molecular_target": "panel of 468 diverse kinases (Homo sapiens, UniProt Q9NRM7)", "details": "LATS2; 1000 nM; read-out: Percent Control"}, "[6]": {"molecular_target": "panel of 468 diverse kinases (Homo sapiens, UniProt P48730)", "details": "CSNK1D; 1000 nM; read-out: Percent Control"}, "[7]": {"molecular_target": "panel of 468 diverse kinases (Homo sapiens, UniProt Q13177)", "details": "PAK2; 1000 nM; read-out: Percent Control"}, "[8]": {"molecular_target": "panel of 468 diverse kinases (Homo sapiens, UniProt P42336)", "details": "PIK3CA; 1000 nM; read-out: Percent Control"}, "[9]": {"molecular_target": "panel of 468 diverse kinases (Homo sapiens, UniProt Q9HBH9)", "details": "MKNK2; 1000 nM; read-out: Percent Control"}, "[10]": {"molecular_target": "panel of 468 diverse kinases (Homo sapiens, UniProt O94768)", "details": "DRAK2; 1000 nM; read-out: Percent Control"}, "[11]": {"molecular_target": "panel of 468 diverse kinases (Homo sapiens, UniProt P51956)", "details": "NEK3; 1000 nM; read-out: Percent Control"}, "[12]": {"molecular_target": "panel of 468 diverse kinases (Homo sapiens, UniProt Q9UKI8)", "details": "TLK1; 1000 nM; read-out: Percent Control"}, "[13]": {"molecular_target": "panel of 468 diverse kinases (Homo sapiens, UniProt O15197)", "sequence (O15197 32-1021 limits assumed)": "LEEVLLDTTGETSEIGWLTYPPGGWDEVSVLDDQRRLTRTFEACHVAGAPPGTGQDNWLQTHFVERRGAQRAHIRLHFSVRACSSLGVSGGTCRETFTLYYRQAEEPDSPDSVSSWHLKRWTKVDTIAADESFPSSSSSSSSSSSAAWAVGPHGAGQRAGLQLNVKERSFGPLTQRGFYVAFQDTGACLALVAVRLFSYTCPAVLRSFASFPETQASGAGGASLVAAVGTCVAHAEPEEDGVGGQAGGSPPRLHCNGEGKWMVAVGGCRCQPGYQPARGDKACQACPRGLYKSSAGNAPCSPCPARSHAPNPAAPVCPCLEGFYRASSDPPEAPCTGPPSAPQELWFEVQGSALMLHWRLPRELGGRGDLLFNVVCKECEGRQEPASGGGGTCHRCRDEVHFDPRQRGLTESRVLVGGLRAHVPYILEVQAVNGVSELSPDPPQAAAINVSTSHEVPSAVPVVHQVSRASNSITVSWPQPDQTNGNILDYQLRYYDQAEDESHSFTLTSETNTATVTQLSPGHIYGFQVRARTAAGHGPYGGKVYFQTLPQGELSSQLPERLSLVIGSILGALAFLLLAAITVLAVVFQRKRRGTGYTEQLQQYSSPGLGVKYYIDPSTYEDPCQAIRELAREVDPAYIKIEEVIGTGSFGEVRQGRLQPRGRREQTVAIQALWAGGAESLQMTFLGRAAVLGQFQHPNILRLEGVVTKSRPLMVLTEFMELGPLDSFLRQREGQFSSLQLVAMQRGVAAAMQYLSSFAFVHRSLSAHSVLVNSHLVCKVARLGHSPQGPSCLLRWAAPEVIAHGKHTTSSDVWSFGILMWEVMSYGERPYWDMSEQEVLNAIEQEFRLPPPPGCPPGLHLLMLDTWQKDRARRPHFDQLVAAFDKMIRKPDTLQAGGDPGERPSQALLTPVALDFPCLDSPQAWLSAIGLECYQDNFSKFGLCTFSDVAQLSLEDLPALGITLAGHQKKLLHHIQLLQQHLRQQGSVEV", "details": "EPHB6; 1000 nM; read-out: Percent Control"}, "[14]": {"molecular_target": "panel of 468 diverse kinases (Homo sapiens, UniProt Q8TDC3)", "details": "BRSK1; 1000 nM; read-out: Percent Control"}, "[15]": {"molecular_target": "panel of 468 diverse kinases (Homo sapiens, UniProt Q9P0L2)", "details": "MARK1; 1000 nM; read-out: Percent Control"}, "[16]": {"molecular_target": "panel of 468 diverse kinases (Homo sapiens, UniProt P00519, F317I)", "details": "1000 nM, read-out: Percent Control"}, "[17]": {"molecular_target": "panel of 468 diverse kinases (Homo sapiens, UniProt P07948)", "details": "LYN; 1000 nM; read-out: Percent Control"}, "[18]": {"molecular_target": "panel of 468 diverse kinases (Homo sapiens, UniProt Q92772)", "details": "CDKL2; 1000 nM; read-out: Percent Control"}, "[19]": {"molecular_target": "panel of 468 diverse kinases (Homo sapiens, UniProt P21802)", "details": "FGFR2; 1000 nM; read-out: Percent Control"}, "[20]": {"molecular_target": "panel of 468 diverse kinases (Homo sapiens, UniProt P07949, M918T)", "details": "RET(M918T); 1000 nM; read-out: Percent Control"}, "[21]": {"molecular_target": "panel of 468 diverse kinases (Homo sapiens, UniProt P09619)", "sequence (P09619 33-1106 limits assumed)": "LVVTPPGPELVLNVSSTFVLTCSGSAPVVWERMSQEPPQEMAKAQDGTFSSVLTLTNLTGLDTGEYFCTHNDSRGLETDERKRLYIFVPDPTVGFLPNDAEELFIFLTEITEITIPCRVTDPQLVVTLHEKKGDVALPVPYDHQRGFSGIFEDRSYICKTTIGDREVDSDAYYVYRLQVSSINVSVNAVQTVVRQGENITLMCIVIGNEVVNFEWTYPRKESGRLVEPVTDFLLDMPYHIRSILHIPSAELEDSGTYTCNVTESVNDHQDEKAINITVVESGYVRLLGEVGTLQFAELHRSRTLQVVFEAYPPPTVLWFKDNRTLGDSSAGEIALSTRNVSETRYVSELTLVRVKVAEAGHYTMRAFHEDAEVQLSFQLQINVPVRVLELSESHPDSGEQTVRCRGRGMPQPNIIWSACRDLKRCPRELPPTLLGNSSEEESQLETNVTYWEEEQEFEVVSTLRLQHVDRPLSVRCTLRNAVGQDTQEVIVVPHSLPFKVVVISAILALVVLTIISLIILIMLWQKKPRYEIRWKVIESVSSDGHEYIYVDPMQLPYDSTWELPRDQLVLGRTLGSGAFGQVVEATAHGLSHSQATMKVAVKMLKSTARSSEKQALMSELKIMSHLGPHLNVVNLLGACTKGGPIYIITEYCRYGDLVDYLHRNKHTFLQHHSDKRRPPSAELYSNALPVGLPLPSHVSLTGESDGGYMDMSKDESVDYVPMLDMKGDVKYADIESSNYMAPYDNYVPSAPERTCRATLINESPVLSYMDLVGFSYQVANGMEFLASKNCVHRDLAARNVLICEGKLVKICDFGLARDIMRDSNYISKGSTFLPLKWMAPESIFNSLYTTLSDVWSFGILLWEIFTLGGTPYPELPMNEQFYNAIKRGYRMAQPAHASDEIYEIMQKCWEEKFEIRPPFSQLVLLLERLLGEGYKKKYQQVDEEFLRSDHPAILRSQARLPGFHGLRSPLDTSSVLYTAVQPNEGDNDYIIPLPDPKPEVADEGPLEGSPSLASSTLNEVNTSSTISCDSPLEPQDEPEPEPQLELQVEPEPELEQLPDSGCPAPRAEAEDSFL", "details": "PDGFRB; 1000 nM; read-out: Percent Control"}, "[22]": {"molecular_target": "panel of 468 diverse kinases (Homo sapiens, UniProt P00533, L861Q)", "sequence (P00533 25-1210 L861Q limits assumed)": "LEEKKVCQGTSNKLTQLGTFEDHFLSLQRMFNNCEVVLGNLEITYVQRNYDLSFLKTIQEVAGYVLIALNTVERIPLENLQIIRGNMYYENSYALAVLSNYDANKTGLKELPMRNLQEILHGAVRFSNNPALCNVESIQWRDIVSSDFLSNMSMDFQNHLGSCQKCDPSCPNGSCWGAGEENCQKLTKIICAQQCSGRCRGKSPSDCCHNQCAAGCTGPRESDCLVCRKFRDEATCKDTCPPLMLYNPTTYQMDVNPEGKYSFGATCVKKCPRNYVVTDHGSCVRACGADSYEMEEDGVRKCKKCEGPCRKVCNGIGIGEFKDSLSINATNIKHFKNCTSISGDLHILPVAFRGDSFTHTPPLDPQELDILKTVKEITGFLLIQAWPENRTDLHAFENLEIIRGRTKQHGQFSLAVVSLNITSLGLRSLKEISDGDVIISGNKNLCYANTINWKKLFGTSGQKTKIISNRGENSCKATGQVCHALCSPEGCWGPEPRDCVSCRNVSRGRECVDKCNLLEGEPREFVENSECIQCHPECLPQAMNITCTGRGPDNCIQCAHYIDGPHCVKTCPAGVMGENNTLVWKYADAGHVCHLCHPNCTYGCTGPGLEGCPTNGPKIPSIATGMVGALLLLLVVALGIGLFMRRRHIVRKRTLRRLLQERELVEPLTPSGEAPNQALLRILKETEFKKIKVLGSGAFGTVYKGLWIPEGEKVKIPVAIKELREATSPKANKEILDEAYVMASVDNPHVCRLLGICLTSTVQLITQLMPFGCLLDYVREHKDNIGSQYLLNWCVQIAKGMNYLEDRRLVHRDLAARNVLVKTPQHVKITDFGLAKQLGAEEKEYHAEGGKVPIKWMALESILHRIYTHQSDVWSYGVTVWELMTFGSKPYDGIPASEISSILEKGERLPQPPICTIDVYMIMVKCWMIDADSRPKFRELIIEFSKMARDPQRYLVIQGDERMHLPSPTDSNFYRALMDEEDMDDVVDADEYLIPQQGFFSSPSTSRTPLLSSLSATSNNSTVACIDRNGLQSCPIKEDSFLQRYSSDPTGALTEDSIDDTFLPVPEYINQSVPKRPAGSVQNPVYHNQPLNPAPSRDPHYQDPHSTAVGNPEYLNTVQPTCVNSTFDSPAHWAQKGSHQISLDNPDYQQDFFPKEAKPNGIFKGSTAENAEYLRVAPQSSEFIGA", "details": "EGFR(L861Q); 1000 nM; read-out: Percent Control"}, "[23]": {"molecular_target": "panel of 468 diverse kinases (Homo sapiens, UniProt Q9Y463)", "details": "DYRK1B; 1000 nM; read-out: Percent Control"}, "[24]": {"molecular_target": "panel of 468 diverse kinases (Homo sapiens, UniProt P10721, D816H)", "details": "KIT(D816H); 1000 nM; read-out: Percent Control"}, "[25]": {"molecular_target": "panel of 468 diverse kinases (Homo sapiens, UniProt P29376)", "sequence (P29376 17-864 limits assumed)": "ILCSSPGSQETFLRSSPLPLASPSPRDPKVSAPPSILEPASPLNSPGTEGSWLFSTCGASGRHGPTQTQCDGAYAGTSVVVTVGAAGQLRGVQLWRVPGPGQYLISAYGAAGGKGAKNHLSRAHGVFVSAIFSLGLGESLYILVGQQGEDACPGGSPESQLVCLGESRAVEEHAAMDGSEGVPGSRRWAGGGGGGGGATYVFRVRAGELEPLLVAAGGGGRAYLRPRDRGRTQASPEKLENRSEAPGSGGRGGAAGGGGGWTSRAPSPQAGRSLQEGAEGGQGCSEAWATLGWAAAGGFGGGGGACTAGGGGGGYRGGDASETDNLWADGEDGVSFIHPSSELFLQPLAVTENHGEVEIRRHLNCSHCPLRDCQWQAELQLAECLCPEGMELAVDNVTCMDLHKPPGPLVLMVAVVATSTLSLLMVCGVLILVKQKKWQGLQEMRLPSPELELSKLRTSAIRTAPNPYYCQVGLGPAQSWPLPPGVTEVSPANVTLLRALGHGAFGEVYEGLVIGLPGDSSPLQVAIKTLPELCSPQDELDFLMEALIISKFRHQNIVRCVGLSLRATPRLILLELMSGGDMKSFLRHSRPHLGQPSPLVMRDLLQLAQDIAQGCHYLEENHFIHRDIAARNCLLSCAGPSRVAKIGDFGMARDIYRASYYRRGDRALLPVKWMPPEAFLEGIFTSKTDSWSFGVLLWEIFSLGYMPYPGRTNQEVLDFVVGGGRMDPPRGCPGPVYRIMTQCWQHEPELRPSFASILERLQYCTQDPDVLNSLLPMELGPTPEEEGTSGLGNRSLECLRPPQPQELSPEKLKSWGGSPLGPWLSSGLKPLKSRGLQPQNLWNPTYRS", "details": "LTK; 1000 nM; read-out: Percent Control"}, "[26]": {"molecular_target": "panel of 468 diverse kinases (Homo sapiens, UniProt P29320)", "details": "EPHA3; 1000 nM; read-out: Percent Control"}, "[27]": {"molecular_target": "panel of 468 diverse kinases (Homo sapiens, UniProt Q96PY6)", "details": "NEK1; 1000 nM; read-out: Percent Control"}, "[28]": {"molecular_target": "panel of 468 diverse kinases (Homo sapiens, UniProt Q13882)", "details": "BRK; 1000 nM; read-out: Percent Control"}, "[29]": {"molecular_target": "panel of 468 diverse kinases (Homo sapiens, UniProt Q96Q40)", "details": "PFTAIRE2; 1000 nM; read-out: Percent Control"}, "[30]": {"molecular_target": "panel of 468 diverse kinases (Homo sapiens, UniProt P42338)", "details": "PIK3CB; 1000 nM; read-out: Percent Control"}, "[31]": {"molecular_target": "panel of 468 diverse kinases (Homo sapiens, UniProt P15056)", "sequence (P15056 2-766 limits assumed)": "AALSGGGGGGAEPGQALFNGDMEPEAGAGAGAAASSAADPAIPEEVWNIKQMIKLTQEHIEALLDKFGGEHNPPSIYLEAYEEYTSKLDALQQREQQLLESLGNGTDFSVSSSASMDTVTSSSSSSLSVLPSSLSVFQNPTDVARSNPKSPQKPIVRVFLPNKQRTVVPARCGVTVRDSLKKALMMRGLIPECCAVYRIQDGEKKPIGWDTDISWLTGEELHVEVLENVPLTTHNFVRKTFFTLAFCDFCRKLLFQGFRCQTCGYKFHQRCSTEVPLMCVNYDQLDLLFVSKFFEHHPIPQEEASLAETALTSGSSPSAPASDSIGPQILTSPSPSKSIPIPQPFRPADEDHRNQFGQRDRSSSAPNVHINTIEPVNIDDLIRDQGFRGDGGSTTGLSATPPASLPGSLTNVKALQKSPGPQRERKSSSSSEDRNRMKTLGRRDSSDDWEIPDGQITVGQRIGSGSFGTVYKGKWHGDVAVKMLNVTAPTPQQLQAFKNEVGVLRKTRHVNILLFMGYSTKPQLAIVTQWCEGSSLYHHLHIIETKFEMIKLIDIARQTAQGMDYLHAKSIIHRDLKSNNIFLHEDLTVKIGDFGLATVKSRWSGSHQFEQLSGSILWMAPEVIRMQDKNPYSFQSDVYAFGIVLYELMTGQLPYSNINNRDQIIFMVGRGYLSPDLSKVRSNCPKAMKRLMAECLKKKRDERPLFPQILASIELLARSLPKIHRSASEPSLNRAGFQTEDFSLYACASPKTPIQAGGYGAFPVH", "details": "BRAF; 1000 nM; read-out: Percent Control"}},
  "note": "Read-outs that look alike come from different tables or passages of the source.",
  "data": [
    {"smiles": "COc1cc2nc(NC3CC3)nc(NC3CCN(C(C)C)CC3)c2cc1OC", "note": "[Formula IV]", "values": [
      {"measurement": "remaining activity at 1 µM", "setting": "[1]", "result": 60, "unit": "%"},
      {"measurement": "remaining activity at 1 µM", "setting": "[2]", "result": 76, "unit": "%"},
      {"measurement": "remaining activity at 1 µM", "setting": "[3]", "result": 99, "unit": "%"},
      {"measurement": "remaining activity at 1 µM", "setting": "[4]", "result": 99, "unit": "%"},
      {"measurement": "remaining activity at 1 µM", "setting": "[5]", "result": 95, "unit": "%"},
      {"measurement": "remaining activity at 1 µM", "setting": "[6]", "result": 98, "unit": "%"},
      {"measurement": "remaining activity at 1 µM", "setting": "[7]", "result": 63, "unit": "%"},
      {"measurement": "remaining activity at 1 µM", "setting": "[8]", "result": 97, "unit": "%"},
      {"measurement": "remaining activity at 1 µM", "setting": "[9]", "result": 82, "unit": "%"},
      {"measurement": "remaining activity at 1 µM", "setting": "[10]", "result": 79, "unit": "%"},
      {"measurement": "remaining activity at 1 µM", "setting": "[11]", "result": 50, "unit": "%"},
      {"measurement": "remaining activity at 1 µM", "setting": "[12]", "result": 90, "unit": "%"},
      {"measurement": "remaining activity at 1 µM", "setting": "[13]", "result": 81, "unit": "%"},
      {"measurement": "remaining activity at 1 µM", "setting": "[14]", "result": 92, "unit": "%"},
      {"measurement": "remaining activity at 1 µM", "setting": "[15]", "result": 92, "unit": "%"},
      {"measurement": "remaining activity at 1 µM", "setting": "[16]; ABL1(F317I)-nonphosphorylated", "result": 85, "unit": "%"},
      {"measurement": "remaining activity at 1 µM", "setting": "[16]; ABL1(F317I)-pho sphorylated", "result": 90, "unit": "%"},
      {"measurement": "remaining activity at 1 µM", "setting": "[17]", "result": 77, "unit": "%"},
      {"measurement": "remaining activity at 1 µM", "setting": "[18]", "result": 100, "unit": "%"},
      {"measurement": "remaining activity at 1 µM", "setting": "[19]", "result": 100, "unit": "%"},
      {"measurement": "remaining activity at 1 µM", "setting": "[20]", "result": 85, "unit": "%"},
      {"measurement": "remaining activity at 1 µM", "setting": "[21]", "result": 93, "unit": "%"},
      {"measurement": "remaining activity at 1 µM", "setting": "[22]", "result": 75, "unit": "%"},
      {"measurement": "remaining activity at 1 µM", "setting": "[23]", "result": 86, "unit": "%"},
      {"measurement": "remaining activity at 1 µM", "setting": "[24]", "result": 78, "unit": "%"},
      {"measurement": "remaining activity at 1 µM", "setting": "[25]", "result": 82, "unit": "%"},
      {"measurement": "remaining activity at 1 µM", "setting": "[26]", "result": 93, "unit": "%"},
      {"measurement": "remaining activity at 1 µM", "setting": "[27]", "result": 100, "unit": "%"},
      {"measurement": "remaining activity at 1 µM", "setting": "[28]", "result": 100, "unit": "%"},
      {"measurement": "remaining activity at 1 µM", "setting": "[29]", "result": 90, "unit": "%"},
      {"measurement": "remaining activity at 1 µM", "setting": "[30]", "result": 71, "unit": "%"},
      {"measurement": "remaining activity at 1 µM", "setting": "[31]", "result": 88, "unit": "%"}
    ]}
  ]
}
